Patent publication US20250108036A1, “COMPOSITIONS FOR REMOVING SENESCENT CELLS AND USES THEREOF” (LIFECEUTIX CO., LTD., priority 2021, published 2025)

Columns and labels:
[1] = tested on: SAOS-2; assay: senescent SAOS-2 tumor size in mice (Example 2-3); assay type: in vivo, BALB/c nude mice; details: doxorubicin 10 mg/kg i.p.; after 10 days LX-112 100 mg/kg oral daily 21 days or repeated doxorubicin
Description: After 7-week-old male BALB/c nude mice (purchased from KRIBB Laboratory Animal Resource Center) were adapted to the experimental environment for one week, the mice were randomized into an experimental group and a control group. SAOS-2 (10^6 cells), a human osteosarcoma cancer cell line cultured in the same manner as Example 2-1, was mixed with PBS (purchased from Welgene) and then anesthetized using 2% isoflurane (purchased from Sigma). It was administered subcutaneously to mice. When the size of the tumor reached about […], doxorubicin was mixed at a concentration of 10 mg/kg in a 1:1 solution of distilled water and PBS (pH 7.2) and administered intraperitoneally to induce tumor aging. After 10 days, LX-112 mixed with 0.5% CMC-Na solution (purchased from Sigma) at a concentration of 100 mg/kg was orally administered daily for 21 days, and the size of the tumor was measured. The control group was repeatedly administered a solution mixed with doxorubicin, and then the size of the tumor was measured.

[2] = tested on: SA-β-gal; assay: SA-β-gal staining of tissues of doxorubicin-aged mice (Example 8-3); assay type: in vivo, C57BL6J mice; details: stained area; mice, doxorubicin 10 mg/kg i.p.; untreated = 1
Description: (§1) After adapting 8-week-old male C57BL6J mice (purchased from KRIBB Laboratory Animal Resource Center) to the experimental environment for 1 week, doxorubicin, an anticancer drug, was administered intraperitoneally at a concentration of 10 mg/kg, and mice that were induced to age for more than 10 days were assigned to an experimental group and a control group. LX-112 was mixed with 0.5% CMC-Na solution (purchased from Sigma) and administered orally at a concentration of 70 mg/kg daily for 21 days. The control group was administered only the solution in the same volume. After drug administration was completed, the method described in each Example below was performed.
Mice were sacrificed in the same method in described in Example 7-3, and tissue sections were prepared from the organ tissues of each region. SA-β-gal, an aging marker was stained. […] FIG. 3 is a photographic result of staining of adipose tissue.

[3] = tested on: IL6; assay: serum IL6 ELISA in doxorubicin-aged mice (Example 8-5); assay type: in vivo, C57BL6J mice; details: mice, doxorubicin 10 mg/kg i.p., untreated = 1
Description: as §1
The amount of IL6, an aging-related inflammation secretory factor (SASP), was measured in serum collected from mice in the same manner as in Example 7-5 using an enzyme-linked immunosorbent assay (ELISA Kit, purchased from R&D Systems).

[4] = tested on: p16, p21; assay: p16 and p21 mRNA qRT-PCR in doxorubicin-aged mice (Example 8-2); assay type: in vivo, C57BL6J mice; details: mice, doxorubicin 10 mg/kg i.p.; untreated = 1
Description: as §1
The mouse was sacrificed in the same manner as in Example 7-2, RNA was extracted from the organ tissue of each region, and qRT-PCR was performed and analyzed using the synthesized cDNA. […] Table 37 calculates the mRNA amounts of p16 and p21 after aging was induced by treatment with the anticancer drug as 100% and compared them with the mRNA amounts of p16 and p21 after treatment with LX-112.

[5] = fatigue/weakness tests and body weight in doxorubicin-aged mice (Example 8-7); assay type: in vivo, C57BL6J mice; details: mice
Description: as §1
In the same way as Example 7-7, in order to analyze fatigue and weakness that occur as a side effect due to treatment with anticancer drugs in mice, activity evaluation (open field test), endurance evaluation (wire hanging test), and muscle strength and grip strength test (grip strength test) were performed. […] In Table 47, the amount of each evaluation after aging was induced by treatment with the anticancer drug was calculated as 100% and compared it with the amount of each evaluation after treatment with LX-112.

[6] = tested on: IL6, CXCL1, CXCL10, IL1β; assay: SASP mRNA qRT-PCR in doxorubicin-aged mice (Example 8-6); assay type: in vivo, C57BL6J mice; details: mice, doxorubicin 10 mg/kg i.p.; untreated = 1
Description: as §1
Using cDNA synthesized in the same manner as Example 7-6, qRT-PCR was performed and analyzed for aging-related inflammation and fibrosis secretory factors (SASP) such as IL6, CXCL1, CXCL10, and IL1β. […] Table 45 calculates the mRNA amount of each factor after aging was induced by treatment with the anticancer drug as 100% and compared it with the mRNA amount of each factor after treatment with LX-112.

[7] = tested on: IL6, CXCL1, CXCL10, IL1β; assay: as above; assay type: in vivo, C57BL6J mice; details: doxorubicin 10 mg/kg i.p., untreated = 1
[8] = tested on: lipofuscin; assay: lipofuscin staining of muscle of doxorubicin-aged mice (Example 8-4); assay type: in vivo, C57BL6J mice; details: stained area; mice, doxorubicin 10 mg/kg i.p.; untreated = 1
Description: as §1
Mice were sacrificed in the same manner as in Example 7-4, and tissue sections were prepared from muscle tissue. Lipofuscin, an aging-related degenerative marker was stained.

[9] = tested on: SAOS-2; assay: CellTiter-Glo cell viability of senescent SAOS-2 cancer cells (Example 2-2); assay type: cell-based, human
Description: The standard for treating various cancers, including osteosarcoma, is repeated chemotherapy. Accordingly, aging was induced in SAOS-2 in the same manner as in Example 2-1, and then (i) treated again with doxorubicin (DOX→DOX) or (ii) treated with the LX-112 (5 μM) composition (DOX→LX-112).

[10] = tested on: foreskin cells; assay: SA-β-gal staining of doxorubicin-treated foreskin cells (Example 1-1); assay type: cell-based, human; details: proportion of SA-β-gal stained cells; doxorubicin 250 nM 24 h + 7 days
Description: Specifically, foreskin cells (source: Chungnam National University College of Medicine) derived from humans were cultured in a designated medium (Iscove's Modified Dulbecco's Medium, source: ATCC; 10% FBS, source: GenDEPOT; 100 U/ml Penicillin & Streptomycin, source: Invitrogen), then treated with doxorubicin (DOX) dissolved in dimethyl sulfoxide (DMSO) at a concentration of 250 nM for 24 hours, and further cultured for 7 days to induce aging. […] To measure the proportion of aged cells, cells treated with doxorubicin and the control group were inoculated into a 24 well plate and stabilized for 24 hours. Then SA-β-gal, a marker related to aging, was stained using a kit (purchased from Cell Signaling Technology), and the proportion of senescent cells having the stained SA-β-gal was measured using an optical microscope.

[11] = tested on: AST, ALT; assay: serum AST and ALT in doxorubicin-aged mice (Example 8-8); assay type: in vivo, C57BL6J mice; details: mice, doxorubicin 10 mg/kg i.p., untreated = 1
Description: as §1
In the same manner as in Example 7-5, the amounts of AST (aspartate aminotransferase) and ALT (alanine transaminase) released into the blood during liver damage were measured by spectrophotometry in the serum collected from mice using a kit (purchased from Sigma) according to the method described in the manual. […] Table 50 calculates the amount of each factor after aging was induced by treatment with the anticancer drug as 100% and compared it with the amount of each factor after treatment with LX-112.

[12] = tested on: SAOS-2; assay: SA-β-gal staining of doxorubicin-treated SAOS-2 cells (Example 2-1); assay type: cell-based, human; details: doxorubicin-induced aging as in Example 1-1
[13] = Table 46, doxorubicin 10 mg/kg i.p.

COc1cccc2c1C(=O)c1c(O)c3c(c(O)c1C2=O)C[C@@](O)(C(=O)CO)C[C@@H]3O[C@H]1C[C@H](N)[C@H](O)[C@H](C)O1 [DOX, doxorubicin, reference compound]
Tumor Diameter (mm) [1]: 15.4 (±1.2) mm
SA-β-gal (Fold) Kidney [2]: 4.1 (±1.5) Fold
SA-β-gal (Fold) Liver [2]: 3.7 (±0.9) Fold
SA-β-gal (Fold) Lung [2]: 1.3 (±0.4) Fold
SA-β-gal (Fold) eWAT [2]: 4.2 (±0.9) Fold
IL6 (Fold) [3]: 11.7 (±0.5) Fold
p16 mRNA (Fold) Kidney [4]: 1.3 (±0.3) Fold
p16 mRNA (Fold) Liver [4]: 2.6 (±0.8) Fold
p16 mRNA (Fold) eWAT [4]: 3.2 (±1.2)^ Fold
p21 mRNA (Fold) Kidney [4]: 2.6 (±2.1) Fold
p21 mRNA (Fold) Liver [4]: 3.8 (±2.3) Fold
p21 mRNA (Fold) eWAT [4]: 3.9 (±3) Fold
Grip Strength Test Strength (N) [5, 13]: 0.7 (±0.1) N
Open Field Test Time in Center (%) [5, 13]: 4.9 (±2.2) %
Wire Hanging Test Time (Sec) [5, 13]: 32 (±11) Sec
Mean Body Weight (g) ([5]; doxorubicin 10 mg/kg i.p. without or with LX-112 70 mg/kg oral daily 21 days): 21.3 (±2.6) g
mRNA (Fold) CXCL10, Liver [6]: 2.6 (±0.9)^ Fold
mRNA (Fold) IL6, eWAT [6]: 3.2 (±0.3) Fold
mRNA (Fold) CXCL1, Liver [7]: 3 (±0.9) Fold
mRNA (Fold) CXCL1, eWAT [7]: 1.3 (±0.4)^ Fold
mRNA (Fold) CXCL10, eWAT [7]: 3 (±1.2) Fold
mRNA (Fold) IL1β, Liver [7]: 1.6 (±0.3) Fold
mRNA (Fold) IL1β, eWAT [7]: 1.6 (±0.2) Fold
mRNA (Fold) IL6, Liver [7]: 1.8 (±0.3) Fold
Lipofuscin (Fold) Muscle [8]: 2.2 (±0.5) Fold
Survival (%) ([9]; DOX → DOX (senescent cells treated again with doxorubicin), 3 d): 72 (±7) %
Survival (%) ([9]; DOX → DOX, 7 d): 55 (±5) %
SA-β-gal (%) [10]: 90 (±7) %
ALT (Fold) [11]: 1.4 (±0.5) Fold
AST (Fold) [11]: 1.3 (±0.0) Fold
SA-β-gal (%) [12]: 66 (±5) %
